Patent US20230233569A1 (Revolution Medicines, Inc., priority 2020, published 2023)
Where “and” joins values, the source holds several entries; their conditions need not be identical. Identical values can stand only once. Like-named read-outs stand apart in the source and are kept apart here.

Key:
Assay in all cases: Disruption of BRAF RBD interaction with Ras (FRET / MOA assay, with Cyclophilin A)
Type in all cases: biochemical
KRAS WT = KRAS WT (Homo sapiens, UniProt P01116+P62937); conditions: KRAS WT; read-out: KRAS WT FRET data IC50
Excerpt: (§1) This protocol may also be executed substituting other Ras proteins or nucleotides.
(§2) The purpose of this biochemical assay was to measure the ability of test compounds to facilitate ternary complex formation between a nucleotide-loaded K-Ras isoform and Cyclophilin A; the resulting ternary complex disrupts binding to a BRAF^RBD construct, inhibiting K-Ras signaling through a RAF effector. Data is reported as IC50 values.
(§3) Compound was present in plate wells as a 10-point 3-fold dilution series starting at a final concentration of 30 μM. After incubation at 25° C. for 3 hours, a mixture of Anti-His Eu-W1024 and anti-GST allophycocyanin was then added to assay sample wells at final concentrations of 10 nM and 50 nM, respectively, and the reaction incubated for an additional 1.5 hours. […] Compounds that facilitate disruption of a K-Ras:RAF complex were identified as those eliciting a decrease in the TR-FRET ratio relative to DMSO control wells.
as §2, with “BRAF^RBDD” for “BRAF^RBD”

KRAS G13C = KRAS G13C (Homo sapiens, UniProt P01116+P62937, G13C)
Excerpt: as §1, §2, §3
as §2, with “BRAF^RBDD” for “BRAF^RBD”

KRAS G12C = KRAS G12C (Homo sapiens, UniProt P01116+P62937, G12C)
Excerpt: as §1, §2, §3
as §2, with “BRAF^RBDD” for “BRAF^RBD”

KRAS G12D = KRAS G12D (Homo sapiens, UniProt P01116+P62937, G12D); conditions: read-out: KRAS G12D FRET data, IC50
Excerpt: as §1, §2, §3
as §2, with “BRAF^RBDD” for “BRAF^RBD”

KRAS G13D = KRAS G13D (Homo sapiens, UniProt P01116+P62937, G13D)
Excerpt: as §1, §2, §3
as §2, with “BRAF^RBDD” for “BRAF^RBD”

KRAS G12S = KRAS G12S (Homo sapiens, UniProt P01116+P62937, G12S); conditions: read-out: KRAS G12S FRET data, IC50
Excerpt: as §1, §2, §3
as §2, with “BRAF^RBDD” for “BRAF^RBD”

KRAS G12V = KRAS G12V (Homo sapiens, UniProt P01116+P62937, G12V); conditions: KRAS G12V; read-out: KRAS G12V FRET data IC50
Excerpt: as §1, §2, §3
as §2, with “BRAF^RBDD” for “BRAF^RBD”

NRAS G12C = NRAS G12C (Homo sapiens, UniProt P01111+P62937, G12C); conditions: NRAS G12C; read-out: NRAS G12C FRET data IC50
Excerpt: as §1, §2, §3
as §2, with “BRAF^RBDD” for “BRAF^RBD”

[1] = read-out: KRAS G13C FRET data, IC50
[2] = read-out: KRAS G12C FRET data, IC50
[3] = KRAS G13D, read-out: KRAS G13D FRET data IC50
[4] = KRAS G13C, read-out: KRAS G13C FRET data IC50
[5] = KRAS G12C, read-out: KRAS G12C FRET data IC50

Chain of NRAS G12C (P01111 whole entry G12C): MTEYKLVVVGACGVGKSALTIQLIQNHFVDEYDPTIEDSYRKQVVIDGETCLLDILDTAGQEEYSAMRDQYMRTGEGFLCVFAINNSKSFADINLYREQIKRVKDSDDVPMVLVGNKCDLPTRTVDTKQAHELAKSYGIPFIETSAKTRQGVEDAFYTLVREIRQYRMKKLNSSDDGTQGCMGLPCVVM
Chain of NRAS G12C (P62937 whole entry): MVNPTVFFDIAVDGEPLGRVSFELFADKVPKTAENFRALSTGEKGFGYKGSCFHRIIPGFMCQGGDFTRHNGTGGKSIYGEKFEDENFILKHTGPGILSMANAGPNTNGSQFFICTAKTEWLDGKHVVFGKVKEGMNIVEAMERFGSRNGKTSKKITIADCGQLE
Chain of KRAS WT (P01116 1-169 isoform P01116-2 limits assumed): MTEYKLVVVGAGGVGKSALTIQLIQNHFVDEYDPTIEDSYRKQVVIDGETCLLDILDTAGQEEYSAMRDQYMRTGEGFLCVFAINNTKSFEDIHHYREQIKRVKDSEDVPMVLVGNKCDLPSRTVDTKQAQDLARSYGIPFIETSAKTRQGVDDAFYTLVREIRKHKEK
Chain of KRAS WT (P62937 whole entry): as the sequence (P62937 whole entry) above
Chain of KRAS G12V (P01116 1-169 isoform P01116-2 G12V limits assumed): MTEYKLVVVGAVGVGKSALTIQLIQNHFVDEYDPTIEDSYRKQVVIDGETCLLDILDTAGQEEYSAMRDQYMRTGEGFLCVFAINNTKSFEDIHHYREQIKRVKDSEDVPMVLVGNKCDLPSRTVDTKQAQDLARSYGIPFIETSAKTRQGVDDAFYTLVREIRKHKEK
Chain of KRAS G12V (P62937 whole entry): as the sequence (P62937 whole entry) above
Chain of KRAS G12D (P01116 1-169 isoform P01116-2 G12D limits assumed): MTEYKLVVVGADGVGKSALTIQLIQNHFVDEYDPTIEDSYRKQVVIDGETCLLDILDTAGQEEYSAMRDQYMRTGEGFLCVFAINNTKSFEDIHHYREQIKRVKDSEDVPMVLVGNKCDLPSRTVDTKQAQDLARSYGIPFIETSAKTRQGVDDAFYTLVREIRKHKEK
Chain of KRAS G12D (P62937 whole entry): as the sequence (P62937 whole entry) above
Chain of KRAS G13C (P01116 1-169 isoform P01116-2 G13C): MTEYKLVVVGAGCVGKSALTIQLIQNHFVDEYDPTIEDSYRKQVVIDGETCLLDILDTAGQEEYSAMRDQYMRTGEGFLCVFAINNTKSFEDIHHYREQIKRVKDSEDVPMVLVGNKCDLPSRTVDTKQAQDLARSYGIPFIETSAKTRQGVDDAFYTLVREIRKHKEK
Chain of KRAS G13C (P62937 whole entry): as the sequence (P62937 whole entry) above
Chain of KRAS G12C (P01116 1-169 isoform P01116-2 G12C): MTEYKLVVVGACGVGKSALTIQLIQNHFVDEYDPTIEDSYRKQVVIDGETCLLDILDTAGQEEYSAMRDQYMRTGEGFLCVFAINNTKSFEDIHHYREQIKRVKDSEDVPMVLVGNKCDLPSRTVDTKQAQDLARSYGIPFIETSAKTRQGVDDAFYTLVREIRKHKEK
Chain of KRAS G12C (P62937 whole entry): as the sequence (P62937 whole entry) above
Chain of KRAS G12S (P01116 1-169 isoform P01116-2 G12S limits assumed): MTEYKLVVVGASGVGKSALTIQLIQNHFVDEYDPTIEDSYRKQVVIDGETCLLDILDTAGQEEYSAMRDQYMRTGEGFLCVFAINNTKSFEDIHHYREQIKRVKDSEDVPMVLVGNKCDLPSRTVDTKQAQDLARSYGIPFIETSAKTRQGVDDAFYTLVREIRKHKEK
Chain of KRAS G12S (P62937 whole entry): as the sequence (P62937 whole entry) above
Chain of KRAS G13D (P01116 1-169 isoform P01116-2 G13D limits assumed): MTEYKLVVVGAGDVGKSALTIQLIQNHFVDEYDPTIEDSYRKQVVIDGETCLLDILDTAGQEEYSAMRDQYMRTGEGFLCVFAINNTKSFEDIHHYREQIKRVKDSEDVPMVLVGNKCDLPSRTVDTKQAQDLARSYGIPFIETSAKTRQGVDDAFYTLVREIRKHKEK
Chain of KRAS G13D (P62937 whole entry): as the sequence (P62937 whole entry) above

Work on `CCn1c(-c2cnccc2COC)c2c3cc(ccc31)-c1cc(O)cc(c1)C[C@H](NC(=O)[C@H](C(C)C)N(C)C(=O)OC1CNC1)C(=O)N1CCC[C@H](N1)C(=O)OCC(C)(C)C2` [Example A81] yielded an IC50 (KRAS WT) of 100 to 1000 nM, an IC50 (KRAS G13C; [1]) of 100 to 1000 nM and an IC50 (KRAS G12C; [2]) of 100 to 1000 nM. The IC50 (KRAS G12D) was 100 to 1000 nM, the IC50 (KRAS G13D; [3]) was 100 to 1000 nM and the IC50 (KRAS G12S) was 100 to 1000 nM. The IC50 (KRAS G12V) was 1000 to 10000 nM and the IC50 (NRAS G12C) was 100 to 1000 nM.

`C=CC(=O)N1CC[C@H](C(=O)N(C)[C@H](C(=O)N[C@H]2Cc3nc(cs3)-c3ccc4c(c3)c(c(-c3cccnc3COC)n4CC)CC(C)(C)COC(=O)[C@@H]3CCCN(N3)C2=O)C(C)C)C1` [Example A094] was tested, and the IC50 (KRAS WT) was > 10000 nM, the IC50 (KRAS G13C; [4]) was > 10000 nM and the IC50 (KRAS G12C; [5]) was 100 to 1000 nM. For the same molecule, the IC50 (KRAS G12D) was > 10000 nM, the IC50 (KRAS G13D; [3]) was > 10000 nM and the IC50 (KRAS G12S) was > 10000 nM. For the same molecule, the IC50 (KRAS G12V) was > 10000 nM and the IC50 (NRAS G12C) was 100 to 1000 nM.

In the case of `CCn1c(-c2cccnc2COC)c2c3cc(ccc31)-c1cc(O)cc(c1)C[C@H](NC(=O)[C@H](C(C)C)N(C)C(=O)[C@H]1CCN(C(=O)C#CCN3CCOCC3)C1)C(=O)N1CCC[C@H](N1)C(=O)OCC(C)(C)C2` [Example A095], the IC50 (KRAS G12C; [5]) is reported as < 10 nM, the IC50 (KRAS G12D) is reported as > 10000 nM and the IC50 (NRAS G12C) is reported as < 10 nM.

In the case of `CCn1c(-c2cccnc2[C@H](C)OC)c2c3cc(ccc31)-c1cc(O)cc(c1)C[C@H](NC(=O)[C@H](C(C)C)N(C)C(=O)[C@H]1CCN(C(=O)OC(C)C)C1)C(=O)N1CCC[C@H](N1)C(=O)OCC(C)(C)C2` [Example A117], the IC50 (KRAS WT) is reported as 100 to 1000 nM and > 10000 nM, the IC50 (KRAS G13C; [1]) is reported as 100 to 1000 nM and > 10000 nM and the IC50 (KRAS G12C; [2]) is reported as 1000 to 10000 nM and 10 to 100 nM. The IC50 (KRAS G12D) was 1000 to 10000 nM and > 10000 nM, the IC50 (KRAS G13D; [3]) was 100 to 1000 nM and > 10000 nM and the IC50 (KRAS G12S) was 100 to 1000 nM and > 10000 nM. For the same molecule, the IC50 (KRAS G12V) was 1000 to 10000 nM and 10 to 100 nM and the IC50 (NRAS G12C) was 100 to 1000 nM and 1000 to 10000 nM.

`CCn1c(-c2cccnc2[C@H](C)OC)c2c3cc(ccc31)-c1cc(O)cc(c1)C[C@H](NS(=O)(=O)c1cn(C)c(C)n1)C(=O)N1CCC[C@H](N1)C(=O)OCC(C)(C)C2` [Example A197] was tested, and the IC50 (KRAS WT) was > 10000 nM, the IC50 (KRAS G13C; [1]) was > 10000 nM and the IC50 (NRAS G12C) was > 10000 nM.

In the case of `CCn1c(-c2cccnc2[C@H](C)OC)c2c3cc(ccc31)-c1cc(O)cc(c1)C[C@H](NS(=O)(=O)CC1CC1)C(=O)N1CCC[C@H](N1)C(=O)OCC(C)(C)C2` [Example A200], the IC50 (KRAS WT) is reported as > 10000 nM, the IC50 (KRAS G13C; [1]) is reported as > 10000 nM and the IC50 (NRAS G12C) is reported as > 10000 nM.

With `CCn1c(-c2cccnc2[C@H](C)OC)c2c3cc(ccc31)-c1csc(n1)C[C@H](NC(=O)[C@H](C(C)C)N(C)C(=O)C1COC1)C(=O)N1CCC[C@H](N1)C(=O)OCC(C)(C)C2` [Example A245] the IC50 (KRAS G13D; KRAS G13D FRET data IC50, KRAS G13D) was > 10000 nM.

In the case of `CCn1c(-c2cccnc2[C@H](C)OC)c2c3cc(ccc31)-c1csc(n1)C[C@H](NC(=O)[C@H](C(C)C)N(C)C(=O)N1CC3(CCCN(C)C3=O)C1)C(=O)N1CCC[C@H](N1)C(=O)OCC(C)(C)C2` [Example A453], the IC50 (KRAS G13D; [3]) is reported as > 10000 nM.

`C=CC(=O)N1CC[C@H](C(=O)N(C)[C@H](C(=O)N[C@H]2Cc3cccc(c3)-c3ccc4c(c3)c(c(-c3cc(CN(C)C)cnc3[C@H](C)OC)n4CC)CC(C)(C)COC(=O)[C@@H]3CCCN(N3)C2=O)C(C)C)C1` [Example A523] was tested, and the IC50 (KRAS WT) was > 10000 nM, the IC50 (KRAS G13C; [4]) was > 10000 nM and the IC50 (KRAS G12C; [5]) was 1000 to 10000 nM. For the same molecule, the IC50 (KRAS G13D; [3]) was > 10000 nM, the IC50 (KRAS G12S) was > 10000 nM and the IC50 (KRAS G12V) was > 10000 nM. For the same molecule, the IC50 (NRAS G12C) was 1000 to 10000 nM.

For `C=CC(=O)N1CC[C@H](C(=O)N(C)[C@H](C(=O)N[C@H]2Cc3cc(O)cc(c3)-c3ccc4c(c3)c(c(-c3cnccc3COC)n4CC)CC(C)(C)COC(=O)[C@@H]3CCCN(N3)C2=O)C(C)C)C1` [Examples A028], the IC50 (KRAS WT) was 100 to 1000 nM, the IC50 (KRAS G13C; [4]) was 100 to 1000 nM and the IC50 (KRAS G12C; [5]) was 10 to 100 nM. The IC50 (KRAS G12D) was 100 to 1000 nM, the IC50 (KRAS G13D; [3]) was 100 to 1000 nM and the IC50 (KRAS G12S) was 10 to 100 nM. It also gave an IC50 (KRAS G12V) of 10 to 100 nM.
